Test results taken from patent US11083725B2 (priority 2014, dated 2021).

Test system: NHBE cells
Assay: Biolog metabolic array: substrate use by NHBE cells with or without CA09 infection
Format: cell-based, human
Conditions: for Substrate use, 590 nm absorbance normalized to zero hour, 1 hr: Biolog PMM2, 1 hr; for Substrate use, 590 nm absorbance normalized to zero hour, 5 hr: Biolog PMM2, 5 hr; for Substrate use, 590 nm absorbance normalized to zero hour, 7 hr: Biolog PMM2, 7 hr; for Substrate use, 590 nm absorbance normalized to zero hour, 0 hr: Biolog PMM2, 0 hr
[1] = Control (uninfected) NHBE cells
[2] = Virus (CA09-infected, MOI 1) NHBE cells
[3] = Virus: CA09-infected NHBE cells, MOI 1, Biolog PMM2
[4] = Virus (CA09, MOI 1) infected NHBE cells

| Compound | 590 nm absorbance normalized to zero hour (substrate use), 1 hr [1] | 590 nm absorbance normalized to zero hour (substrate use), 2 hr [1] | 590 nm absorbance normalized to zero hour (substrate use), 3 hr [1] | 590 nm absorbance normalized to zero hour (substrate use), 4 hr [1] | 590 nm absorbance normalized to zero hour (substrate use), 6 hr [1] | 590 nm absorbance normalized to zero hour (substrate use), 8 hr [1] | 590 nm absorbance normalized to zero hour (substrate use), 9 hr [1] | 590 nm absorbance normalized to zero hour (substrate use), 10 hr [1] | 590 nm absorbance normalized to zero hour (substrate use), 11 hr [1] | Substrate use, 590 nm absorbance normalized to zero hour, 1 hr [1] | Substrate use, 590 nm absorbance normalized to zero hour, 5 hr [1] | Substrate use, 590 nm absorbance normalized to zero hour, 7 hr [1] | 590 nm absorbance normalized to zero hour (substrate use), 1 hr [2] | 590 nm absorbance normalized to zero hour (substrate use), 2 hr [2] | 590 nm absorbance normalized to zero hour (substrate use), 3 hr [2] | 590 nm absorbance normalized to zero hour (substrate use), 4 hr [2] | 590 nm absorbance normalized to zero hour (substrate use), 6 hr [2] | 590 nm absorbance normalized to zero hour (substrate use), 8 hr [2] | 590 nm absorbance normalized to zero hour (substrate use), 9 hr [2] | 590 nm absorbance normalized to zero hour (substrate use), 10 hr [2] | also measured |
| --- | --- | --- | --- | --- | --- | --- | --- | --- | --- | --- | --- | --- | --- | --- | --- | --- | --- | --- | --- | --- | --- |
| OC[C@@H](O)[C@@H](O)[C@H](O)[C@H](O)CO [D-Mannitol] | 0.96 | 0.94 | 1.00 | 0.99 | 0.34 | 0.74 | 0.79 | 0.74 | 0.64 | 0.96 | 0.91 | 0.81 | 0.20 | 0.27 | 0.32 | 0.34 | 0.42 | 0.47 | 0.52 | 0.53 | 590 nm absorbance normalized to zero hour (substrate use), 5 hr [2]: 0.40; 590 nm absorbance normalized to zero hour (substrate use), 7 hr [2]: 0.44; 590 nm absorbance normalized to zero hour (substrate use), 11 hr [2]: 0.57; 590 nm absorbance normalized to zero hour (substrate use), 1 hr [3]: 0.20; 590 nm absorbance normalized to zero hour (substrate use), 2 hr [3]: 0.27; 590 nm absorbance normalized to zero hour (substrate use), 3 hr [3]: 0.32; 590 nm absorbance normalized to zero hour (substrate use), 4 hr [3]: 0.34; 590 nm absorbance normalized to zero hour (substrate use), 5 hr [3]: 0.40; 590 nm absorbance normalized to zero hour (substrate use), 6 hr [3]: 0.42; 590 nm absorbance normalized to zero hour (substrate use), 7 hr [3]: 0.44; 590 nm absorbance normalized to zero hour (substrate use), 8 hr [3]: 0.47; 590 nm absorbance normalized to zero hour (substrate use), 9 hr [3]: 0.52; 590 nm absorbance normalized to zero hour (substrate use), 10 hr [3]: 0.53; 590 nm absorbance normalized to zero hour (substrate use), 11 hr [3]: 0.57 |
| OC[C@H]1OC(O)[C@@H](O)[C@@H](O)[C@@H]1O (stereo partly drawn) [D-Mannose] | 2.20 | 3.33 | 4.33 | 4.90 | 6.50 | 8.13 | 9.60 | 10.60 | 12.47 | 2.20 | 6.64 | 8.62 | 1.49 | 2.09 | 2.68 | 3.06 | 4.57 | 5.47 | 6.51 | 6.80 | 590 nm absorbance normalized to zero hour (substrate use), 0 hr [1]: 1.00; Substrate use, 590 nm absorbance normalized to zero hour, 0 hr [1]: 1.00; 590 nm absorbance normalized to zero hour (substrate use), 0 hr [2]: 1.00; 590 nm absorbance normalized to zero hour (substrate use), 5 hr [2]: 4.10; 590 nm absorbance normalized to zero hour (substrate use), 7 hr [2]: 4.94; 590 nm absorbance normalized to zero hour (substrate use), 11 hr [2]: 7.75; 590 nm absorbance normalized to zero hour (substrate use), 0 hr [3]: 1.00; 590 nm absorbance normalized to zero hour (substrate use), 1 hr [3]: 1.49; 590 nm absorbance normalized to zero hour (substrate use), 2 hr [3]: 2.09; 590 nm absorbance normalized to zero hour (substrate use), 3 hr [3]: 2.68; 590 nm absorbance normalized to zero hour (substrate use), 4 hr [3]: 3.06; 590 nm absorbance normalized to zero hour (substrate use), 5 hr [3]: 4.10; 590 nm absorbance normalized to zero hour (substrate use), 6 hr [3]: 4.57; 590 nm absorbance normalized to zero hour (substrate use), 7 hr [3]: 4.94; 590 nm absorbance normalized to zero hour (substrate use), 8 hr [3]: 5.47; 590 nm absorbance normalized to zero hour (substrate use), 9 hr [3]: 6.51; 590 nm absorbance normalized to zero hour (substrate use), 10 hr [3]: 6.80; 590 nm absorbance normalized to zero hour (substrate use), 11 hr [3]: 7.75 |
| OC[C@H]1O[C@@](CO)(O[C@H]2O[C@H](CO)[C@@H](O)[C@H](O)[C@H]2O)[C@@H](O[C@H]2O[C@H](CO)[C@@H](O)[C@H](O)[C@H]2O)[C@@H]1O [D-Melezitose] | 1.47 | 1.93 | 2.23 | 2.39 | 3.85 | 3.55 | 3.84 | 4.31 | 3.97 | 1.47 | 2.80 | 3.32 | 1.67 | 2.39 | 2.73 | 2.88 | 3.57 | 3.98 | 4.49 | 4.69 | 590 nm absorbance normalized to zero hour (substrate use), 0 hr [1]: 1.00; Substrate use, 590 nm absorbance normalized to zero hour, 0 hr [1]: 1.00; 590 nm absorbance normalized to zero hour (substrate use), 0 hr [2]: 1.00; 590 nm absorbance normalized to zero hour (substrate use), 5 hr [2]: 3.35; 590 nm absorbance normalized to zero hour (substrate use), 7 hr [2]: 3.77; 590 nm absorbance normalized to zero hour (substrate use), 11 hr [2]: 5.01; 590 nm absorbance normalized to zero hour (substrate use), 0 hr [3]: 1.00; 590 nm absorbance normalized to zero hour (substrate use), 1 hr [3]: 1.67; 590 nm absorbance normalized to zero hour (substrate use), 2 hr [3]: 2.39; 590 nm absorbance normalized to zero hour (substrate use), 3 hr [3]: 2.73; 590 nm absorbance normalized to zero hour (substrate use), 4 hr [3]: 2.88; 590 nm absorbance normalized to zero hour (substrate use), 5 hr [3]: 3.35; 590 nm absorbance normalized to zero hour (substrate use), 6 hr [3]: 3.57; 590 nm absorbance normalized to zero hour (substrate use), 7 hr [3]: 3.77; 590 nm absorbance normalized to zero hour (substrate use), 8 hr [3]: 3.98; 590 nm absorbance normalized to zero hour (substrate use), 9 hr [3]: 4.49; 590 nm absorbance normalized to zero hour (substrate use), 10 hr [3]: 4.69; 590 nm absorbance normalized to zero hour (substrate use), 11 hr [3]: 5.01 |
| OC[C@H]1O[C@H](OCC2O[C@@H](O)[C@H](O)[C@@H](O)[C@@H]2O)[C@H](O)[C@@H](O)[C@H]1O (stereo partly drawn) [D-Melibiose] | 0.88 | 1.14 | 1.40 | 1.44 | 1.81 | 1.80 | 2.05 | 2.19 | 1.80 | 0.88 | 1.69 | 1.88 | 3.65 | 3.76 | 3.77 | 3.78 | 3.58 | 3.20 | 1.54 | 1.54 | 590 nm absorbance normalized to zero hour (substrate use), 0 hr [1]: 1.00; Substrate use, 590 nm absorbance normalized to zero hour, 0 hr [1]: 1.00; Substrate use, 590 nm absorbance normalized to zero hour, 0 hr [4]: 1.00; Substrate use, 590 nm absorbance normalized to zero hour, 1 hr [4]: 3.65; Substrate use, 590 nm absorbance normalized to zero hour, 5 hr [4]: 3.62; Substrate use, 590 nm absorbance normalized to zero hour, 7 hr [4]: 3.59; 590 nm absorbance normalized to zero hour (substrate use), 0 hr [2]: 1.00; 590 nm absorbance normalized to zero hour (substrate use), 11 hr [2]: 1.63 |
